From patent US10570152B2, “Antibacterial therapeutics and prophylactics” (VYOME BIOSCIENCES PVT. LTD., priority 2015, dated 2020)
Values after ≈ are worked out from the molar mass of the structure shown.

Experiments:
Experiment in all cases: MIC by micro broth dilution
Assay type in all cases: cell-based
[1] = tested on: K. pneumonia ATCC 13883; settings: for activity in words: Klebsiella pneumonia (susceptible); for MIC: Klebsiella pneumoniae, ATCC13883, K. pneumonia ATCC 13883, read-out: Minimum inhibitory concentration (MIC)
Procedure: (§1) MIC of DART molecules were determined by micro broth dilution as per CLSI guidelines. Bacterial strains were cultured in Brain Heart Infusion Agar (BHIA) at 37° C. for 24 h. For MIC determination, BHI broth (100 μl) was added to each of the wells of a 96 well plate. 100 μl of broth containing drug was added to the first well (1A to 1H) and thereafter serial (double) dilutions were carried out for up to 10 wells (column 1 to column 10 of the 96 well plate). Bacterial inoculum was prepared by adjusting the bacterial culture turbidity to 0.5 McFarland standard (approximately 1.5×10^8 cells/ml) and further diluted (100 times with sterile BHI broth). Diluted bacterial suspension (100 μl) was added to each well except sterility control wells (column 12 of 96 well plate). The plates were incubated at 37° C. for 24 h. The MIC of the test compound was measured after addition of Alamar blue dye.

[2] = tested on: P. aeruginosa CCARM 2204; settings: Pseudomonas aeruginosa, CCARM2204, read-out: Minimum inhibitory concentration (MIC)
Procedure: as §1

[3] = tested on: E. aerogenes NCIM 5139; settings: Klebsiella aerogenes, NCIM5139, read-out: Minimum inhibitory concentration (MIC)
Procedure: as §1

[4] = tested on: S. aureus CCARM 3505; settings: Staphylococcus aureus, CCARM3505, read-out: Minimum inhibitory concentration (MIC)
Procedure: as §1

[5] = tested on: S. epidermidis ATCC 35984; settings: Staphylococcus epidermidis, ATCC35984, read-out: Minimum inhibitory concentration (MIC)
Procedure: as §1

[6] = tested on: P. aeruginosa ATCC 27853; settings: Pseudomonas aeruginosa, ATCC27853, read-out: Minimum inhibitory concentration (MIC)
Procedure: as §1

[7] = tested on: E. coli MTCC 1687; settings: Escherichia coli, MTCC1687, read-out: Minimum inhibitory concentration (MIC)
Procedure: as §1

[8] = tested on: E. faecium NCIM 5421; settings: Enterococcus faecium, NCIM5421, read-out: Minimum inhibitory concentration (MIC)
Procedure: as §1

[9] = tested on: P. aeruginosa CCARM 2161; settings: Pseudomonas aeruginosa, CCARM2161, read-out: Minimum inhibitory concentration (MIC)
Procedure: as §1

[10] = tested on: S. aureus ATCC 43300; settings: Staphylococcus aureus, ATCC43300; S. aureus ATCC 43300; read-out: Minimum inhibitory concentration (MIC)
Procedure: as §1

[11] = tested on: E. aerogenes M2-1; settings: Klebsiella aerogenes, M21, read-out: Minimum inhibitory concentration (MIC)
Procedure: as §1

[12] = tested on: S. epidermidis S12-1; settings: Staphylococcus epidermidis, S121, read-out: Minimum inhibitory concentration (MIC)
Procedure: as §1

[13] = tested on: E. coli BAA 196; settings: Escherichia coli, BAA196, read-out: Minimum inhibitory concentration (MIC)
Procedure: as §1

[14] = tested on: A. baumannii ATCC 1906; settings: Acinetobacter baumannii, ATCC1906, read-out: Minimum inhibitory concentration (MIC)
Procedure: as §1

[15] = tested on: S. aureus MTCC 6908; settings: Staphylococcus aureus, MTCC6908, read-out: Minimum inhibitory concentration (MIC)
Procedure: as §1

[16] = tested on: A. baumannii CCARM 12001; settings: Acinetobacter baumannii, CCARM12001, read-out: Minimum inhibitory concentration (MIC)
Procedure: as §1

[17] = tested on: A. baumannii CCARM 12020; settings: Acinetobacter baumannii, CCARM12020, read-out: Minimum inhibitory concentration (MIC)
Procedure: as §1

SMILES | activity in words [1] | MIC [1] [µg/mL] | MIC [2] [µg/mL] | MIC [3] [µg/mL] | MIC [4] [µg/mL] | MIC [5] [µg/mL] | MIC [6] [µg/mL] | MIC [7] [µg/mL] | MIC [8] [µg/mL] | MIC [9] [µg/mL] | MIC [10] [µg/mL] | MIC [11] [µg/mL] | MIC [12] [µg/mL] | MIC [13] [µg/mL] | MIC [14] [µg/mL] | MIC [15] [µg/mL] | MIC [16] [µg/mL] | MIC [17] [µg/mL]
CC1Sc2c(C(=O)O)c(=O)c3cc(F)c(N4CCN(Cc5nc6ccc([N+](=O)[O-])cc6[nH]5)CC4)cc3n21 (stereo not shown) [Compound 18, 6-Fluoro-1-methyl-7-(4-((6-nitro-1H-benzo[d]imidazol-2-yl)methyl)piperazin-1-yl)-4-oxo-1H,4H-[1,3]thiazeto[3,2-a]quinoline-3-carboxylic acid] | active | 0.12 (≈ 0.229 µM) | > 16 | 0.25 (≈ 0.477 µM) | > 4 | 0.25 (≈ 0.477 µM) | > 16 | > 4 | 0.5 (≈ 0.953 µM) | > 16 | 1 (≈ 1.91 µM) | > 16 | > 16 | > 4 | 1 (≈ 1.91 µM) | 1 (≈ 1.91 µM) | – | –
CC1Sc2c(C(=O)O)c(=O)c3cc(F)c(N4CCN(C(=O)NC(=N)N)CC4)cc3n21 (stereo not shown) [Compound 44, 7-(4-(Carbamimidoylcarbamoyl)piperazin-1-yl)-6-fluoro-1-methyl-4-oxo-1H,4H-[1,3]thiazeto[3,2-a]quinoline-3-carboxylic acid] | – | 0.12 (≈ 0.276 µM) | > 16 | 1 (≈ 2.3 µM) | > 16 | 4 (≈ 9.21 µM) | 4 (≈ 9.21 µM) | 0.5 (≈ 1.15 µM) | > 16 | – | 4 (≈ 9.21 µM) | 1 (≈ 2.3 µM) | > 16 | > 16 | 16 (≈ 36.8 µM) | 8 (≈ 18.4 µM) | > 16 | > 16
Cc1ncc([N+](=O)[O-])n1CC(O)CN1CCN(c2cc3c(cc2F)c(=O)c(C(=O)O)c2n3C(C)S2)CC1 (stereo not shown) [Compound 1] | – | – | > 16 | > 16 | 32 (≈ 60.1 µM) | 0.13 (≈ 0.244 µM) | > 16 | 16 (≈ 30 µM) | > 16 | > 16 | 1 (≈ 1.88 µM) | > 16 | > 64 | 16 (≈ 30 µM) | > 16 | 1.5 (≈ 2.82 µM) | > 16 | > 16
CC1Sc2c(C(=O)O)c(=O)c3cc(F)c(N4CCN(C(=O)c5ccccn5)CC4)cc3n21 (stereo not shown) [Compound 31, 6-Fluoro-1-methyl-4-oxo-7-(4-picolinoylpiperazin-1-yl)-1H,4H-[1,3]thiazeto[3,2-a]quinoline-3-carboxylic acid] | active | 0.12 (≈ 0.264 µM) | – | 1 (≈ 2.2 µM) | 16 (≈ 35.2 µM) | 0.13 (≈ 0.286 µM) | 8 (≈ 17.6 µM) | 2 (≈ 4.4 µM) | 0.06 (≈ 0.132 µM) | – | 0.25 (≈ 0.55 µM) | 8 (≈ 17.6 µM) | 8 (≈ 17.6 µM) | 4 (≈ 8.8 µM) | 2 (≈ 4.4 µM) | 0.5 (≈ 1.1 µM) | – | –
CC1Sc2c(C(=O)O)c(=O)c3cc(F)c(N4CCN(C(=O)c5cccc(Br)n5)CC4)cc3n21 (stereo not shown) [Compound 32, 7-(4-(6-Bromopicolinoyl)piperazin-1-yl)-6-fluoro-1-methyl-4-oxo-1H,4H-[1,3]thiazeto[3,2-a]-quinoline-3-carboxylic acid] | active | 0.5 (≈ 0.937 µM) | > 16 | 16 (≈ 30 µM) | 8 (≈ 15 µM) | 0.13 (≈ 0.244 µM) | 16 (≈ 30 µM) | 4 (≈ 7.5 µM) | – | > 16 | 0.06 (≈ 0.112 µM) | 16 (≈ 30 µM) | 4 (≈ 7.5 µM) | 8 (≈ 15 µM) | 2 (≈ 3.75 µM) | 0.5 (≈ 0.937 µM) | > 16 | > 16
